From patent US20240335431A1, “1-H-PYRROLO[2,3-c]PYRIDINE COMPOUNDS” (Acerta Pharma B.V., priority 2023, published 2024)
pIC50: −log10 of the molar value. Like-named read-outs stand apart in the source and are kept apart here.

How the values were obtained:
HEL cells = test: Proliferation assay, HEL control cell line (CellTiter-Glo, 7 days); assay type: cell-based, human; conditions: Homo sapiens, HEL, 168 h
Experimental: (§1) The anti-proliferative effect of compounds was tested in human leukaemia cell lines. The cell lines […] and MV4; 11 each harbor an MLL translocation expressing the MLL fusion proteins MLL-AF9 and MLL-AF4, respectively. Each also express the wildtype protein from the second allele. OCI-AML3 cells carrying the NPM1c gene mutation were also tested.
(§2) MOLM-13 and HEL cells were cultured in RPMI 1640 (Gibco) supplemented with 10% FBS (Gibco) and 1% Pen/Strep (Gibco). MV4; 11 cells were cultured in IMDM (Gibco) supplemented with 10% FBS (Gibco) and 1% Pen/Strep (Gibco). OCI-AML3 cells were cultured in MEMa (Gibco) supplemented with 20% FBS (Gibco) and 1% Pen/Strep (Gibco).
(§3) To assess proliferative effects, 125 MOLM-13 cells, 300 MV4; 11 cells, 75 OCI-AML3 cells, and 200 HEL cells were seeded in 40 μL media per well in 384-well ViewPlates (Perkin Elmer, 6007480). Cell seeding numbers were chosen based on growth curves to ensure linear growth throughout the experiments. Test compounds were added at 3.16-fold serial dilutions in DMSO from […] and DMSO content was normalized to 0.1%. Cells were incubated for 7 days at 37° C. and 5% CO2. A day 0 plate was seeded for each cell line and used as a standard control.
(§4) To measure cell viability, CellTiter-Glo 2.0 (Promega, G9242) luminescent growth indicator was used. 10 μL CellTiter-Glo reagent was added per well. Plates were placed on a plate shaker for 2 minutes in the dark and left to incubate off the shaker for another 8 minutes in the dark, for a total of 10 minutes. Plates were read using an EnVision plate reader (Perkin Elmer) using the Luminescence aperture and a measurement time of 0.1 second.
(§5) Data were analyzed in Genedata Screener®. IC50 values were determined by plotting % inhibition versus log compound concentration and using a one site dose response model. Raw data signals were normalized using 0.1% DMSO media only as background control, 0.1% DMSO with cells no compound as 100% viability (maximum signal), and day 0 0.1% DM with cells no compound as 0% viability (minimum signal).

[1] = Human liver microsomes (HLMs) intrinsic clearance assay; assay type: in vitro ADME; conditions: for microsomal CLint at 1 µM: human, microsomes, pH 7.4, HLM CLint
Experimental: Human liver microsomes (HLMs) were obtained from Corning (UltraPool 150 donors) at a concentration of 20 mg/mL protein. HLMs were stored at −80° C. until use and prior to use, thawed in a 37° C. water bath and then stored on wet ice. DMSO and NADPH were sourced from Solarbio S&T Co Ltd.
2 mL of 10 mM DMSO stock solutions of test compound were added to 198 mL acetonitrile to produce […] concentration. 1325 mL of 20 mg/mL HLM were added to 22260 mL of phosphate buffer to produce the HLM mixture. An 8.334 mg/mL solution of NADPH was prepared in 100 mmol/L pH 7.4 phosphate buffer.
222.5 mL of the HLM mixture and 25 mL of the 10 mM NADPH were added into the incubation plates (1 mL 96 well deep well plate from Thermo). The mixture was vortexed for 10 seconds at 1000 rpm. The incubation plate was pre-warmed in a water bath at 37° C. for 8 minutes. 2.5 mL of the […] stocks of test compound was added to initiate the reaction. The mix was vortexed for 12 seconds at 1000 rpm and incubated at 37° C. The incubation mixture (250 mL) contained 1 mg/mL HLM, 1 mmol/L NADPH and […].
The reaction was quenched by transferring 20 mL of the incubation mixture at 0.5, 5, 10, 15, 20 and 30 minutes into the quenching plate containing 100 mL of cold stop solution (acetonitrile containing internal standards). The plate was vortexed at 800 rpm for 2 minutes.
The quenching plates were centrifuged for 20 minutes at 4000 rpm and 4° C. 40 mL of the supernatant was transferred into a 96-well analysis plate containing 160 mL of water. The analysis plate was shaken at 1000 rpm for 2 minutes and the samples analysed by LC-MS/MS.
Peak areas were determined from extracted ion chromatograms. Percent parent remaining was calculated from peak area of test compound. The slope value, k, was determined by linear regression of the natural logarithm of percent parent remaining versus incubation time. The in vitro half-life (t1/2) was determined from the slope value by the equation: […]
Conversion of the in vitro half-life (min) into in vitro CLint (mL/min/mg proteins) was completed using the equation: […]

MOLM-13 cells = test: Proliferation assay, MOLM-13 (CellTiter-Glo, 7 days); assay type: cell-based, human
Experimental: as §1, §2, §3, §4, §5

[2] = Caco-2 cell monolayers intrinsic permeation assay in the presence of efflux inhibitors; assay type: in vitro ADME; conditions: Caco-2, with efflux inhibitors
Excerpt: Caco-2 cells were obtained from American Type Culture Collection (ATCC). HEPES, penicillin, streptomycin, bovine serum albumin (BSA) were obtained from Beijing Xinjingke Biotechnology Co, Ltd. Fetal bovine serum, Hank's balanced salt solution (HBSS) and non-essential amino acids (NEAA) were purchased from Gibco. Dulbecco's Modified Eagle's Medium (DMEM) was purchased from Corning and MES from Sigma. HTS Transwell-24 permeable supports were purchased from Corning. Zosuquidar and Ko-143 were obtained from MedChemExpress and Benzbromarone from Sigma.
The Caco-2 cell culture medium consisted of DMEM with high glucose and L-glutamine supplemented with 10% FBS, 0.1 mg/mL streptomycin, 100 units of penicillin, 0.6 mg/mL kanamycin sulfate and 1×NEAA. […] culture medium was added to each Transwell insert with 800 mL added to each well of the reservoir. After incubation at 37° C. in 5% CO2 for 1 hour, the plates were ready for seeding.
The cells were cultivated in T-75 flasks at 37° C., 5% CO2, 95% relative humidity. At 80 to 90% confluence, cells were treated with trypsin/EDTA treatment until they became detached. The trypsin/EDTA was inactivated by adding excess serum containing medium. The cell suspension was centrifuged at 120 g for 10 minutes followed by resuspension of the cell pellet in seeding medium at a cell density of 7.92×10^5 cells/mL.
[…] of the resulting cell suspension was added to each well of the Transwell plate and incubated for 14 to 18 days, with medium replaced every other day. After incubation for 14 to 18 days, the cells should have reached confluence and should be tested for electrical resistance using a Millicel Epithelial Volt-Ohm measuring system (Millipore).
The cell monolayers were washed twice with pre-warmed HBSS and incubated at 37° C. for 30 minutes under gentle shaking (480 rpm).
The compound under test was presented as a 10 mM DMSO stock solution. 2 mL of the 10 mM stock was added to 8 mL DMSO to produce a 2 mM stock. 2 mL was added to 398 mL of HBSS containing 10 mM Zosuquidar, 30 mM Benzbromarone and 2 mM KO-143 to make a […] solution.
210 mL of the test compound solution was added to the apical compartment of the Transwell plate, with a 10 mL sample taken to act as the time 0 sample. The wells of the receiver (basolateral) compartment were filled with 800 mL HBSS (containing the efflux inhibitors). The plates were incubated at 37° C. with shaking at 480 rpm for 120 minutes with sampling at 45 and 120 minutes.
At each sampling time (0, 45 and 120 minutes) 10 mL was removed from the apical compartment and add to 90 mL (HBSS containing the efflux inhibitors). 100 mL was removed from each basolateral compartment. 3 volumes of cold acetonitrile containing internal standard was added to each sample and vortex mixed for 10 minutes at 100 rpm. Samples were then centrifuged at 400 rpm for 20 minutes. 50 mL of the supernatant was taken for LC/MS/MS analysis to determine compound concentration.
The apparent permeability (Papp), in units of centimetre per second, were calculated for Caco-2 drug transport using the following equation: […]
Where CR is the concentration of compound in the receiver side at the respective time point, CD is the concentration of compound in the donor side at the respective timepoint. Area is the surface area of the membrane and time is 4500 seconds (75×60 seconds).

OCI-AML3 cells = test: Proliferation assay, OCI-AML3 (CellTiter-Glo, 7 days); assay type: cell-based, human; conditions: Homo sapiens, OCI-AML-3, 168 h
Experimental: as §1, §2, §3, §4, §5

MV4;11 cells = test: Proliferation assay, MV4;11 (CellTiter-Glo, 7 days); assay type: cell-based, human; conditions: read-out: MV-4-11 IC50
Experimental: as §1, §2, §3, §4, §5

hERG [3] = target: T1, hERG (Homo sapiens (Human), UniProt Q12809); test: hERG assay 1 (standard), SyncroPatch 384PE; assay type: cell-based; conditions: CHO cells, room temperature, up to 40 uM
T1 sequence (Q12809 whole entry): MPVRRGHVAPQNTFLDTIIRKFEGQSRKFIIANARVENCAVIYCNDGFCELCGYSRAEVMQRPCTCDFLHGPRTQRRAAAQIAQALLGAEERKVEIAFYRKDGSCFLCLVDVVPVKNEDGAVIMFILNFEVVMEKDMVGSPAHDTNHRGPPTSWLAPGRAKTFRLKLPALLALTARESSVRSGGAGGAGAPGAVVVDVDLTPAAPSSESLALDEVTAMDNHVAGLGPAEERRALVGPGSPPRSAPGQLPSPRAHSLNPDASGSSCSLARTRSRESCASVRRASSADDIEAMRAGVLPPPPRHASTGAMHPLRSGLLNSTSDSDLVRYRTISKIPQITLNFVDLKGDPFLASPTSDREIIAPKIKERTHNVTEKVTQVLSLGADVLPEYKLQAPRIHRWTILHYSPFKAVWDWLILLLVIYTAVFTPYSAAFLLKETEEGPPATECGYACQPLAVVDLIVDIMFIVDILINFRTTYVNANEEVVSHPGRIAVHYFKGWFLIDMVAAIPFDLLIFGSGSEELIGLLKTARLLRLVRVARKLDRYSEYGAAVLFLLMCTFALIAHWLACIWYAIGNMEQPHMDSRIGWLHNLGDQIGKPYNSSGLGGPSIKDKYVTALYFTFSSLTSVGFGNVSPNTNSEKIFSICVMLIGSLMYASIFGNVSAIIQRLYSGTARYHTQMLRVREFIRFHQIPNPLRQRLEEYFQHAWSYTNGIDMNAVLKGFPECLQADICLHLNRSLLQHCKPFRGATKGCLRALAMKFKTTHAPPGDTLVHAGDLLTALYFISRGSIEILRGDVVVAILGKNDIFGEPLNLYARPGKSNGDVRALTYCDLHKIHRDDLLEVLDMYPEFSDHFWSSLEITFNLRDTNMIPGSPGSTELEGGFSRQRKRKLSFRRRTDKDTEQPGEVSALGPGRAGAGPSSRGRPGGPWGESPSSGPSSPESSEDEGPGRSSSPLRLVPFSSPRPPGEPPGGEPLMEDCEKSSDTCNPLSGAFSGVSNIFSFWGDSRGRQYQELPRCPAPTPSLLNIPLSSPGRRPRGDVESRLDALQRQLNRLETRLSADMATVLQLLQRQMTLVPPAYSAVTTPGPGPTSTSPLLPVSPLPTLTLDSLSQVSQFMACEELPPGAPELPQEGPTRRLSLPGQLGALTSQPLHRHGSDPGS
Experimental: Experiments were performed on the SyncroPatch 384PE (Nanion Technologies) high throughput patch clamp platform at room temperature and used medium resistance chips with 4 patch holes per site. hERG-expressing Chinese hamster ovary K1 (CHO) cell line was used in assay-ready format and kept in liquid nitrogen until use. 2 vials of cells (10×10^6 cells per vial) were thawed and added to 20 ml Hepes-buffered saline solution (HBSS). HBSS comprised 140 mM NaCl, 4 mM KCl, 10 mM HEPES and 5 mM Glucose (pH 7.4). The internal patch clamp solution was KF 120 mM, KCl 20 mM, HEPES 10 mM, EGTA 10 mM, and 25 μM Escin (pH 7.2). After the initial sealing process was complete, a seal enhancer solution comprising HBSS supplemented with 10 mM CaCl2 and 1 mM MgCl2 was applied to cells. The external solution was then exchanged (4 times) for external patch clamp solution comprising NaCl 80 mM, KCl 4 mM, HEPES 10 mM, CaCl2 2 mM, MgCl2 1 mM, glucose 5 mM, and NMDG 60 mM (pH7.4). All compounds were dispensed from initial 10 mM DMSO stocks. An industry standard +60/−40 mV voltage protocol was applied every 15 seconds. Compounds were tested in a 6-point cumulative assay (final DMSO concentration 0.33%), with a concentration range of 139 nM to 40 uM. Data were analyzed in Genedata Screener®. IC50 values were determined by plotting % inhibition versus log compound concentration and using a one site dose response model. Only wells that passed acceptance criteria for this platform were used in this analysis (30 MegaOhm seal resistance, Z prime >0.4 and current size >0.2 nA).

hERG [4] = target: T1, hERG; test: hERG assay 2, QPatch II 48X, room temperature; assay type: cell-based; conditions: hERG DUO cell line, top 200 μM
Experimental: Experiments were performed on the QPatch II 48X (Sophion Biosciences) high throughput patch clamp platform at room temperature and used single hole Qplates. hERG DUO cell line (BSys) was used. The internal patch clamp solution was KF 60 mM, KCl 70 mM, HEPES 10 mM, EGTA 10 mM, and 5 mM Mg ATP (pH7.2). After sealing and whole cell access was gained the external solution (NaCl 140 mM, KCl 4 mM, HEPES 10 mM, CaCl2 2 mM, MgCl2 1 mM, glucose 5 mM (pH 7.4) was applied twice to establish stable baseline currents. An industry standard +40/−40 mV voltage protocol was applied every 15 seconds. All compounds were tested in a 6-point cumulative assay (final DMSO concentration 0.4-2% depending on stock concentration of compounds). Compounds were dispensed from initial 10 mM or 50 mM DMSO stocks after which DMSO dilutions were undertaken with a top concentration of 200 μM tested. Solvent controls were run in all experiments in line with the DMSO % required. Only wells that passed acceptance criteria for this platform were used in this analysis (500 MegaOhm seal resistance and current size >0.2 nA). Analysis was completed in Prism Graphpad to complete a composite IC50, by plotting % inhibition versus log compound concentration and using a log(inhibitor) vs. response—Variable slope.

| microsomal CLint at 1 µM [1] | pIC50 (MOLM-13 cells; Homo sapiens, MOLM-13, 168 h) | Papp A→B [2] | pIC50 (OCI-AML3 cells) | pIC50 (MV4;11 cells; Homo sapiens, MV4-11, 168 h) | SMILES | pIC50 (HEL cells) | HLM CLint ([1]; 1 mg/mL HLM, NADPH) | pIC50 (hERG [3]) | pIC50 (MOLM-13 cells) | pIC50 (hERG [4]) | pIC50 (MV4;11 cells) |
| --- | --- | --- | --- | --- | --- | --- | --- | --- | --- | --- | --- |
| 18 µL/min/mg | 6.81 | 0.4 ×10⁻⁶ cm/s | 6.56 | 6.84 | C[C@@H]1CC[C@H](C)N1C(=O)c1cc(F)ccc1-n1cc(C(=O)C2CCN(C(=O)[C@H]3N[C@@H]4CC[C@H]3C4)CC2)c2ccncc21 [Example 32, (1-((1R,3S,4S)-2-Azabicyclo[2.2.1]heptane-3-carbonyl)piperidin-4-yl)(1-(2-((2R,5S)-2,5-dimethylpyrrolidine-1-carbonyl)-4-fluorophenyl)-1H-pyrrolo[2,3-c]pyridin-3-yl)methanone] | < 5.00 |  |  |  |  |  |
|  |  |  |  |  | CCN(C(=O)c1cc(F)ccc1-n1c(C)c(C(=O)C2CCN(C(=O)[C@@H]3CCC4(CC4)N3)CC2)c2ccncc21)C(C)C (single isomer, unassigned) [Example 49-1] | < 5.00 | >300 µL/min/mg | < 4.40 | 5.64 | < 3.70 | 5.53 |
| 38 µL/min/mg | 6.32 |  | 6.20 | 6.46 | CC(C)N(C(=O)c1cc(F)ccc1-n1cc(C(=O)C2CN(C(=O)[C@H]3N[C@@H]4CC[C@H]3C4)C2)c2ccnnc21)C(C)C [Example 14, 2-(5-(1-((1R,3S,4S)-2-Azabicyclo[2.2.1]heptane-3-carbonyl)azetidine-3-carbonyl)-7H-pyrrolo[2,3-c]pyridazin-7-yl)-5-fluoro-N,N-diisopropylbenzamide 1·formic acid] | < 5.00 |  |  |  |  |  |
